Here are results for ten compounds from PubChem BioAssay (NCI).

Several values for one entry are separate records, joined by “and”; a condition that tells them apart may be missing. Equal values may be shown once.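 Protocol summary: plate cells (96-well), add compound at 5 concentrations, incubate 48 h, interpolate endpoints linearly. The concentration for 50% growth inhibition is given as GI50. TGI marks complete inhibition of growth.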

Some test systems named below: HOP-92 NSCLC; NCI-H23 lung; M14 melanoma; SK-MEL-28 melanoma; EKVX NSCLC; SW-620 colon; SF-295 CNS; MCF7 breast; MDA-MB-231 breast; HL-60(TB) leukemia.
Assay in all cases: NCI tumour cell line growth inhibition, 48 h

`Cc1cc(=O)[nH]o1`: the TGI in the assay on HOP-92 NSCLC, in the assay on NCI-H23 lung, in the assay with M14 melanoma, in the assay with SK-MEL-28 melanoma, in the assay with EKVX NSCLC and in the assay with SW-620 colon was over 100 µM each time. Moreover, the TGI with SF-295 CNS, in the assay with MCF7 breast and in the assay with MDA-MB-231 breast was over 100 µM throughout.
For `CCCC[N+](CCCC)=c1ccc2nc3c(C)cc(N(CC)CC)cc3sc-2c1`, the GI50 is 0.0995 µM with HL-60(TB) leukemia; 0.0601 µM in the assay with NCI-H23 lung; 0.338 µM with M14 melanoma; 0.613 µM with SK-MEL-28 melanoma; 0.245 µM in the assay on SW-620 colon; 0.247 µM with MDA-MB-231 breast. Moreover, the TGI was 0.773 µM in the assay on HL-60(TB) leukemia; 1.04 µM with NCI-H23 lung; 1.64 µM in the assay with M14 melanoma; 2.03 µM with SK-MEL-28 melanoma; 1.58 µM in the assay with SW-620 colon; 0.849 µM with MDA-MB-231 breast.
Take `O=[N+]([O-])c1ccc2c(N3CCC(CCCC4CCN(c5ncnc6cc([N+](=O)[O-])ccc56)CC4)CC3)ncnc2c1`: the GI50 in the assay with HL-60(TB) leukemia is 17.8 µM; in the assay on HOP-92 NSCLC, 4.89 µM; with NCI-H23 lung, 2.29 µM; with M14 melanoma it was over 49 µM; with SK-MEL-28 melanoma, over 44.7 µM; in the assay with SW-620 colon, over 48 µM. Also, the GI50 is 5.53 µM with SF-295 CNS, 0.619 µM in the assay on MCF7 breast and over 47.1 µM with MDA-MB-231 breast. The TGI in the assay with HL-60(TB) leukemia was over 100 µM; in the assay on HOP-92 NSCLC, over 76 µM; in the assay with NCI-H23 lung, over 100 µM; in the assay on M14 melanoma it was over 100 µM; in the assay with SK-MEL-28 melanoma it was over 100 µM; in the assay on SW-620 colon, over 100 µM. Besides, the TGI with SF-295 CNS was over 100 µM; in the assay with MCF7 breast, over 59.3 µM; in the assay on MDA-MB-231 breast, over 100 µM.
Take `CCOc1cc2c(cc1O)/C(=N\O)C[C@@H]1[C@@H]2CC[C@]2(C)[C@@H](O)CC[C@@H]12`: the TGI with HL-60(TB) leukemia is under 0.0258 µM; in the assay with HOP-92 NSCLC, over 100 µM; with M14 melanoma it was over 100 µM; with SK-MEL-28 melanoma, over 53.5 µM; in the assay on EKVX NSCLC, over 100 µM; in the assay with SW-620 colon, over 100 µM. In addition, in the assay on SF-295 CNS, the TGI was 0.081 µM and 0.0784 µM. Moreover, the GI50 in the assay with HOP-92 NSCLC is 14.8 µM; in the assay with NCI-H23 lung, 0.004 µM; in the assay with M14 melanoma it was 0.041 µM; with SK-MEL-28 melanoma, 0.0143 µM; in the assay with EKVX NSCLC it was 0.0582 µM; in the assay with SW-620 colon, 0.0234 µM and 0.0382 µM. The GI50 was 0.00322 µM and 0.0266 µM in the assay with SF-295 CNS; 0.0264 µM in the assay on MCF7 breast.
For `CN(C)CCNC(=O)Cn1cc([N+](=O)[O-])c(=O)c2ccccc21`, the TGI in the assay on HL-60(TB) leukemia, in the assay on NCI-H23 lung, in the assay with M14 melanoma, in the assay on SK-MEL-28 melanoma, with SW-620 colon and in the assay on SF-295 CNS was over 100 µM in each case. Further, the TGI in the assay on MCF7 breast and in the assay with MDA-MB-231 breast was over 100 µM in each case.
Take `C=CC(C=O)C1(O)CCOC(=O)/C1=C\N` (stereo unspecified): the GI50 is 52.4 µM in the assay with NCI-H23 lung; over 100 µM in the assay on M14 melanoma; over 100 µM in the assay with SK-MEL-28 melanoma; over 100 µM in the assay on EKVX NSCLC; over 100 µM in the assay with SW-620 colon; over 100 µM with SF-295 CNS. Besides, the GI50 in the assay with MCF7 breast and in the assay on MDA-MB-231 breast was over 100 µM in each case. Besides, the TGI in the assay on NCI-H23 lung, in the assay with M14 melanoma, with SK-MEL-28 melanoma, in the assay on EKVX NSCLC, in the assay on SW-620 colon and in the assay on SF-295 CNS was over 100 µM in each case. For the same compound, the TGI in the assay with MCF7 breast and with MDA-MB-231 breast was over 100 µM each time.
Turning to `COc1ccc2nc3cc(Cl)ccc3c(N3CCN(c4ccnc(N5CCOCC5)n4)CC3)c2c1`, the GI50 in the assay with HL-60(TB) leukemia is 8.12 µM; in the assay with HOP-92 NSCLC, 11.5 µM; in the assay on NCI-H23 lung, 8.61 µM; with M14 melanoma it was over 100 µM; with SK-MEL-28 melanoma, 58.4 µM; with SW-620 colon, 4.71 µM. Also, the GI50 was over 100 µM in the assay on SF-295 CNS and 1.89 µM in the assay with MCF7 breast. Besides, the TGI with HL-60(TB) leukemia, in the assay on HOP-92 NSCLC, in the assay on NCI-H23 lung, in the assay on M14 melanoma, in the assay on SK-MEL-28 melanoma and in the assay on SW-620 colon was over 100 µM in each case. Also, the figures for the TGI in the assay with SF-295 CNS and with MCF7 breast were over 100 µM and 4.9 µM, respectively.
As for `Cc1noc(C)c1-c1cc(O)cc(C(O)c2ccccc2)c1` (stereo unspecified), the GI50 was 2.17 µM with HL-60(TB) leukemia; 1.02 µM in the assay with HOP-92 NSCLC; 4.48 µM in the assay on M14 melanoma; 9.15 µM with SK-MEL-28 melanoma; 24.6 µM in the assay on SW-620 colon; 7.31 µM in the assay with SF-295 CNS. In addition, the GI50 in the assay on MCF7 breast was 1.7 µM; with MDA-MB-231 breast, 3.92 µM. Further, the TGI was 22.7 µM in the assay with HL-60(TB) leukemia; 72.9 µM in the assay with HOP-92 NSCLC; over 100 µM in the assay with M14 melanoma; over 100 µM with SK-MEL-28 melanoma; over 100 µM with SW-620 colon; over 100 µM in the assay on SF-295 CNS. In addition, the TGI with MCF7 breast and with MDA-MB-231 breast was over 100 µM each time.
Take `Cc1cccc(C(=O)/C=C/SC(=NC#N)SCc2ccccc2)c1`: the GI50 is 12.3 µM with HOP-92 NSCLC; 20.9 µM in the assay with NCI-H23 lung; 24.8 µM in the assay with M14 melanoma; 25.8 µM in the assay on SK-MEL-28 melanoma; 28 µM in the assay on EKVX NSCLC; 6.45 µM in the assay on SW-620 colon. The GI50 is 21.2 µM in the assay on SF-295 CNS, 34.3 µM in the assay with MCF7 breast and 20 µM with MDA-MB-231 breast. Moreover, the TGI in the assay on HOP-92 NSCLC is 47.9 µM; with NCI-H23 lung, 47 µM; in the assay on M14 melanoma, 59.1 µM; in the assay on SK-MEL-28 melanoma, 67 µM; with EKVX NSCLC it was 63.2 µM; with SW-620 colon, over 100 µM. The TGI in the assay on SF-295 CNS was 88.6 µM; in the assay with MCF7 breast, over 100 µM; with MDA-MB-231 breast it was 41.5 µM.
Regarding `COc1ccc(-c2nn(-c3cccc(NC(=O)c4ccc5c(c4)OCCO5)c3)cc2-c2ccncc2)cc1Cl`, the GI50 in the assay on HL-60(TB) leukemia is 2 µM; in the assay on HOP-92 NSCLC, 0.335 µM; in the assay with NCI-H23 lung, 2.71 µM; in the assay with M14 melanoma, 1.57 µM; with SK-MEL-28 melanoma it was 1.9 µM; with SW-620 colon, 2.62 µM. Besides, the GI50 in the assay with SF-295 CNS was 1.56 µM; in the assay on MCF7 breast, 1.99 µM; in the assay with MDA-MB-231 breast, 2.11 µM. Also, the TGI in the assay with HL-60(TB) leukemia was 5.96 µM; in the assay on HOP-92 NSCLC, 4.99 µM; in the assay with NCI-H23 lung it was 21.3 µM; in the assay on M14 melanoma, 4.28 µM; in the assay with SK-MEL-28 melanoma, 11.6 µM; in the assay with SW-620 colon it was 19.2 µM. The TGI in the assay on SF-295 CNS is 4.43 µM; in the assay on MCF7 breast, 10.9 µM; with MDA-MB-231 breast it was 12.2 µM.
